In patent US10695337B2, “Piperidin-4-yl azetidine derivatives as JAK1 inhibitors” (Incyte Corporation, priority 2010, dated 2020):

Target: human JAK1 (a.a. 837-1142)
Test: In vitro JAK kinase assay (HTRF, phosphorylation of a biotinylated peptide), JAK1
Type: biochemical
Conditions: measured at 1 mM ATP; JAK2 IC50 / JAK1 IC50
Summary of the method: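 N-terminally His-tagged catalytic domains, baculovirus-expressed in insect cells and purified, were used as enzyme. Reactions ran 1 hr at room temperature and were stopped with a mix of 45 mM EDTA, 300 nM SA-APC and 6 nM Eu-Py20. The HTRF signal was read after 40 min of antibody binding.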

SMILES	IC50 Ratio JAK2/JAK1
Cc1nc(NC(=O)N2CCC(N3CC(CC#N)(n4cc(-c5ncnc6[nH]ccc56)cn4)C3)CC2)sc1C [Example 192, 4-{3-(cyanomethyl)-3-[4-(7H-pyrrolo[2,3-d]pyrimidin-4-yl)-1H-pyrazol-1-yl]azetidin-1-yl}-N-(4,5-dimethyl-1,3-thiazol-2-yl)piperidine-1-carboxamide]	3.0
N#CCC1(n2cc(-c3ncnc4[nH]ccc34)cn2)CN(C2CCN(C(=O)Nc3nc4ccccc4s3)CC2)C1 [Example 193, N-1,3-benzothiazol-2-yl-4-{3-(cyanomethyl)-3-[4-(7H-pyrrolo[2,3-d]pyrimidin-4-yl)-1H-pyrazol-1-yl]azetidin-1-yl}piperidine-1-carboxamide]	0.5
Cn1c(NC(=O)N2CCC(N3CC(CC#N)(n4cc(-c5ncnc6[nH]ccc56)cn4)C3)CC2)nc2ccccc21 [Example 194, 4-{3-(cyanomethyl)-3-[4-(7H-pyrrolo[2,3-d]pyrimidin-4-yl)-1H-pyrazol-1-yl]azetidin-1-yl}-N-(1-methyl-1H-benzimidazol-2-yl)piperidine-1-carboxamide]	2.2
N#CCC1(n2cc(-c3ncnc4[nH]ccc34)cn2)CN(C2CCN(C(=O)Nc3nc(-c4ccc(Cl)cc4)cs3)CC2)C1 [Example 195, N-[4-(4-chlorophenyl)-1,3-thiazol-2-yl]-4-{3-(cyanomethyl)-3-[4-(7H-pyrrolo[2,3-d]pyrimidin-4-yl)-1H-pyrazol-1-yl]azetidin-1-yl}piperidine-1-carboxamide]	3.2
CCn1nccc1NC(=O)N1CCC(N2CC(CC#N)(n3cc(-c4ncnc5[nH]ccc45)cn3)C2)CC1 [Example 196, 4-{3-(cyanomethyl)-3-[4-(7H-pyrrolo[2,3-d]pyrimidin-4-yl)-1H-pyrazol-1-yl]azetidin-1-yl}-N-(1-ethyl-1H-pyrazol-5-yl)piperidine-1-carboxamide]	9.9
Cc1cc(NC(=O)N2CCC(N3CC(CC#N)(n4cc(-c5ncnc6[nH]ccc56)cn4)C3)CC2)n(C)n1 [Example 197, 4-{3-(cyanomethyl)-3-[4-(7H-pyrrolo[2,3-d]pyrimidin-4-yl)-1H-pyrazol-1-yl]azetidin-1-yl}-N-(1,3-dimethyl-1H-pyrazol-5-yl)piperidine-1-carboxamide]	3.2
Cc1ncccc1NC(=O)N1CCC(N2CC(CC#N)(n3cc(-c4ncnc5[nH]ccc45)cn3)C2)CC1 [Example 198, 4-{3-(cyanomethyl)-3-[4-(7H-pyrrolo[2,3-d]pyrimidin-4-yl)-1H-pyrazol-1-yl]azetidin-1-yl}-N-(2-methylpyridin-3-yl)piperidine-1-carboxamide]	4.4
Cc1nc(F)ccc1NC(=O)N1CCC(N2CC(CC#N)(n3cc(-c4ncnc5[nH]ccc45)cn3)C2)CC1 [Example 199, 4-{3-(cyanomethyl)-3-[4-(7H-pyrrolo[2,3-d]pyrimidin-4-yl)-1H-pyrazol-1-yl]azetidin-1-yl}-N-(6-fluoro-2-methylpyridin-3-yl)piperidine-1-carboxamide]	10.0
Cc1ccc(NC(=O)N2CCC(N3CC(CC#N)(n4cc(-c5ncnc6[nH]ccc56)cn4)C3)CC2)c(F)n1 [Example 200, 4-{3-(cyanomethyl)-3-[4-(7H-pyrrolo[2,3-d]pyrimidin-4-yl)-1H-pyrazol-1-yl]azetidin-1-yl}-N-(2-fluoro-6-methylpyridin-3-yl)piperidine-1-carboxamide]	6.7
N#CCC1(n2cc(-c3ncnc4[nH]ccc34)cn2)CN(C2CCN(C(=O)Nc3ncccc3C(F)(F)F)CC2)C1 [Example 201, 4-{3-(cyanomethyl)-3-[4-(7H-pyrrolo[2,3-d]pyrimidin-4-yl)-1H-pyrazol-1-yl]azetidin-1-yl}-N-[3-(trifluoromethyl)pyridin-2-yl]piperidine-1-carboxamide]	3.6
